Data as given in US9512120B2, “Microbicidally active imidazopyridine derivatives” (Syngenta Participations AG, priority 2013, dated 2016).

Columns and labels:
[1] = test system: Glomerella lagenarium (Colletotrichum lagenarium); assay: Glomerella lagenarium (Colletotrichum lagenarium) / liquid culture (anthracnose); format: cell-based; conditions: Colletotrichum orbiculare, PDB, 24° C., 3-4 days after application, read-out: control of Glomerella lagenarium (inhibition of growth, photometric)
In short: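 Test compound, delivered in DMSO at an application rate of 200 ppm, was combined with spore-containing PDB. Photometric growth-inhibition measurement followed 3-4 days of incubation at 24° C.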

Pythium ultimum = Pythium ultimum / liquid culture (seedling damping off); format: cell-based; conditions: Globisporangium ultimum, potato dextrose broth, 24° C., 2-3 days after application, read-out: control of Pythium ultimum (inhibition of growth, photometric)
Description: Pythium ultimum/Liquid Culture (Seedling Damping Off) Mycelia fragments and oospores of a newly grown liquid culture of the fungus were directly mixed into nutrient broth (potato dextrose broth). After placing a DMSO solution of test compound into a 96-well format microtiter plate at an application rate of 200 ppm, the nutrient broth containing the fungal mycelia/spore mixture was added. The test plates were incubated at 24° C. and the inhibition of growth was determined photometrically 2-3 days after application.

Plasmopara viticola = Plasmopara viticola / grape / leaf disc preventative; format: in vivo; conditions: foliar, grape vine leaf disks, inoculated 1 day after application, assessed 6-8 days after application, read-out: control of Plasmopara viticola (percent disease control compared to untreated)
[2] = test system: Puccinia recondita f. sp. Tritici; assay: Puccinia recondita f. sp. tritici / wheat / leaf disc preventative (brown rust); format: in vivo; conditions: foliar, wheat leaf segments cv Kanzler, inoculated 1 day after application, assessed 7-9 days after application, read-out: control of Puccinia recondita f. sp. Tritici (percent disease control compared to untreated)
In short: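 Preventative test: percent disease control relative to untreated leaf segments was assessed 7-9 days post-application. Wheat (cv Kanzler) leaf discs were treated at 200 ppm and spore-inoculated 1 day afterwards. Discs were held at 19° C and 75% relative humidity under a 12/12 h light cycle.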

[3] = test system: Phaeosphaeria nodorum (Septoria nodorum); assay: Phaeosphaeria nodorum (Septoria nodorum) / wheat / leaf disc preventative (glume blotch); format: in vivo; conditions: Parastagonospora nodorum, foliar, wheat leaf segments cv Kanzler, inoculated 2 days after application, assessed 5-7 days after application, read-out: control of Phaeosphaeria nodorum (percent disease control compared to untreated)
In short: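 Wheat leaf segments (cv Kanzler) on agar sprayed with compound at 200 ppm, inoculated with spores 2 days later. Incubated at 20° C., 75% relative humidity, 12/12 h light/dark; percent disease control versus untreated scored 5-7 days after application.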

Pyrenophora teres = Pyrenophora teres / barley / leaf disc preventative (net blotch); format: in vivo; conditions: foliar, barley leaf segments cv Hasso, inoculated two days after application, assessed 5-7 days after application, read-out: control of Pyrenophora teres (disease control compared to untreated)
In short: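 Preventative leaf-disc test: 200 ppm spray, then spore inoculation after two days on barley cv Hasso segments. Incubation 20 °C, 65% relative humidity, 12 h light/12 h dark; efficacy rated against untreated checks at 5-7 days post-application.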

[4] = test system: Botryotinia fuckeliana (Botrytis cinerea); assay: Botryotinia fuckeliana (Botrytis cinerea) / liquid culture (gray mould); format: cell-based; conditions: Vogels broth, 24° C., 3-4 days after application, read-out: control of Botryotinia fuckeliana (inhibition of growth, photometric)
In short: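 Test compound was applied at 200 ppm in DMSO, then Vogels nutrient broth containing cryo-stored B. cinerea conidia was added. Photometric growth-inhibition reading followed after 3-4 days at 24 °C.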

[5] = test system: Mycosphaerella graminicola (Septoria tritici); assay: Mycosphaerella graminicola (Septoria tritici) / liquid culture (Septoria blotch); format: cell-based; conditions: Zymoseptoria tritici, PDB, 24° C., 4-5 days after application, read-out: control of Mycosphaerella graminicola (inhibition of growth, photometric)
In short: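 Growth inhibition was read photometrically after 4–5 days at 24 °C. The test compound was applied at 200 ppm from DMSO solution, then PDB broth seeded with conidia taken straight from cryogenic storage was added.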

Gaeumannomyces graminis = Gaeumannomyces graminis / liquid culture (take-all of cereals); format: cell-based; conditions: PDB, 24° C., 4-5 days after application, read-out: control of Gaeumannomyces graminis (inhibition of growth, photometric)
In short: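 Growth inhibition, measured by photometry 4-5 days post-application at 24 °C, of fungal mycelial fragments in PDB broth. Test compound applied as DMSO solution at 200 ppm.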

[6] = test system: Thanatephorus cucumeris (Rhizoctonia solani); assay: Thanatephorus cucumeris (Rhizoctonia solani) / liquid culture (foot rot, damping-off); format: cell-based; conditions: PDB, 24° C., 3-4 days after application, read-out: control of Thanatephorus cucumeris (inhibition of growth, photometric)
In short: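 At 200 ppm, compounds in DMSO were combined with fresh liquid-culture mycelia in PDB and kept at 24° C; photometric measurement of growth inhibition after 3-4 days.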

[7] = test system: Monographella nivalis (Microdochium nivale); assay: Monographella nivalis (Microdochium nivale) / liquid culture (foot rot cereals); format: cell-based; conditions: PDB, 24° C., 4-5 days after application, read-out: control of Monographella nivalis (inhibition of growth, photometric)
In short: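 Cryostored conidia in potato dextrose broth were added to test compound dispensed from DMSO at 200 ppm. Plates were kept at 24° C, and growth inhibition was read photometrically 4-5 days after application.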

[8] = test system: Mycosphaerella arachidis (Cercospora arachidicola); assay: Mycosphaerella arachidis (Cercospora arachidicola) / liquid culture (early leaf spot); format: cell-based; conditions: PDB, 24° C., 4-5 days after application, read-out: control of Mycosphaerella arachidis (inhibition of growth, photometric)
In short: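 Conidia suspended in potato dextrose broth and added to test compound from DMSO solution at 200 ppm. Incubated at 24 °C; growth inhibition read photometrically 4-5 days after application.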

Sclerotinia sclerotiorum = Sclerotinia sclerotiorum liquid culture (cottony rot / white mold); format: cell-based; conditions: PDB, 24° C., 3-4 days after application, read-out: control of Sclerotinia sclerotiorum (inhibition of growth, photometric)
In short: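 Mycelia fragments of Sclerotinia sclerotiorum in potato dextrose broth were added to compound in DMSO. Cultures incubated at 24° C; growth inhibition determined photometrically 3-4 days after application.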

[9] = test system: Blumeria graminis f. Sp. Tritici (Erysiphe graminis f. Sp. Tritici); assay: Blumeria graminis f. sp. tritici / wheat / leaf disc preventative (powdery mildew on wheat); format: in vivo; conditions: foliar, wheat leaf segments cv. Kanzler, inoculated 1 day after application, assessed 6-8 days after application, read-out: control of Blumeria graminis (percent disease control compared to untreated)
Description: Blumeria graminis f. Sp. Tritici (Erysiphe graminis f. Sp. Tritici)/Wheat/Leaf Disc Preventative (Powdery Mildew on Wheat):
Wheat leaf segments cv. Kanzler were placed on agar in a 24-well plate and sprayed with the formulated test compound diluted in water at an application rate of 200 ppm. The leaf disks were inoculated by shaking powdery mildew infected plants above the test plates 1 day after application. The inoculated leaf disks were incubated at 20° C. and 60% relative humidity under a light regime of 24 h darkness followed by 12 h/12 h (dark/light) in a climate chamber and the activity of a compound was assessed as percent disease control compared to untreated when an appropriate level of disease damage appears on untreated check leaf segments (6-8 days after application). The following compounds gave at least 80% control of Blumeria graminis at 200 ppm when compared to untreated control leaf disks under the same conditions, which show extensive disease development: 2, 13, 23, 50, 59, 61, 67, 75, 85, 86, 89, 90, 93, 102, 103, 107, 134, 136, 137, 138, 139, 141, 145, 151, 153, 154, 163, 173, 174

Fusarium culmorum = assay: microbe, parasite or virus in culture; format: cell-based; conditions: read-out: control of Fusarium culmorum (inhibition of growth, photometric)

Compound | inhibition at 20 ppm [1] [%] | inhibition at 20 ppm (Pythium ultimum) [%] | melting point [°C] | pest or weed control at 200 ppm (Plasmopara viticola) [%] | pest or weed control at 200 ppm [2] [%] | pest or weed control at 200 ppm [3] [%] | pest or weed control at 200 ppm (Pyrenophora teres) [%] | inhibition at 20 ppm [4] [%] | inhibition at 20 ppm [5] [%] | inhibition at 20 ppm (Gaeumannomyces graminis) [%] | inhibition at 20 ppm [6] [%] | inhibition at 20 ppm [7] [%] | inhibition at 20 ppm [8] [%] | inhibition at 20 ppm (Sclerotinia sclerotiorum) [%] | pest or weed control at 200 ppm [9] [%] | inhibition at 20 ppm (Fusarium culmorum) [%]
CCCCc1nc(N)n(-c2nc3cnccc3n2C2CCCCC2)n1 [Compound 6, 5-butyl-2-(1-cyclohexylimidazo[4,5-c]pyridin-2-yl)-1,2,4-triazol-3-amine] | ≥ 80 | ≥ 80 | 163 to 165 |  |  |  |  |  |  |  |  |  |  |  |  | 
CCn1c(-n2ncnc2N)nc2cncc(-c3ccccc3)c21 [Compound 19, 2-(1-ethyl-7-phenylimidazo[4,5-c]pyridin-2-yl)-1,2,4-triazol-3-amine] | ≥ 80 | ≥ 80 | 247 to 251 | ≥ 80 | ≥ 80 | ≥ 80 | ≥ 80 | ≥ 80 | ≥ 80 | ≥ 80 | ≥ 80 | ≥ 80 |  |  |  | 
CCn1c(-n2ncnc2N)nc2cncc(C)c21 [Compound 22, 2-(1-ethyl-7-methylimidazo[4,5-c]pyridin-2-yl)-1,2,4-triazol-3-amine] | ≥ 80 | ≥ 80 | 194 to 198 |  | ≥ 80 | ≥ 80 | ≥ 80 | ≥ 80 | ≥ 80 | ≥ 80 | ≥ 80 | ≥ 80 | ≥ 80 | ≥ 80 |  | 
CCn1c(-n2ncnc2N)nc2cncc(-c3ccc(Cl)cc3Cl)c21 [Compound 38, 2-[7-(2,4-dichlorophenyl)-1-ethylimidazo[4,5-c]pyridin-2-yl]-1,2,4-triazol-3-amine] | ≥ 80 | ≥ 80 |  |  | ≥ 80 | ≥ 80 | ≥ 80 | ≥ 80 | ≥ 80 | ≥ 80 | ≥ 80 | ≥ 80 | ≥ 80 | ≥ 80 |  | 
CCn1c(-n2ncnc2N)nc2cncc(-c3ccc(OC)nc3)c21 [Compound 59, 2-[1-ethyl-7-(6-methoxypyridin-3-yl)imidazo[4,5-c]pyridin-2-yl]-1,2,4-triazol-3-amine] | ≥ 80 | ≥ 80 |  |  | ≥ 80 | ≥ 80 | ≥ 80 | ≥ 80 | ≥ 80 | ≥ 80 | ≥ 80 |  |  |  | ≥ 80 | 
CCn1c(-n2ncnc2N)nc2cncc(-c3ccc(F)cc3F)c21 [Compound 80, 2-[7-(2,4-difluorophenyl)-1-ethylimidazo[4,5-c]pyridin-2-yl]-1,2,4-triazol-3-amine] | ≥ 80 | ≥ 80 |  |  | ≥ 80 | ≥ 80 | ≥ 80 | ≥ 80 | ≥ 80 | ≥ 80 | ≥ 80 | ≥ 80 | ≥ 80 | ≥ 80 |  | 
CCn1c(-n2ncnc2N)nc2cncc(-c3ccccc3C#N)c21 [Compound 85, 2-[2-(5-amino-1,2,4-triazol-1-yl)-1-ethylimidazo[4,5-c]pyridin-7-yl]benzonitrile] | ≥ 80 | ≥ 80 |  |  | ≥ 80 |  | ≥ 80 | ≥ 80 | ≥ 80 | ≥ 80 | ≥ 80 |  |  |  | ≥ 80 | 
CCn1c(-n2ncnc2N)nc2cncc(-c3cc(Cl)ccc3Cl)c21 [Compound 88, 2-[7-(2,5-dichlorophenyl)-1-ethylimidazo[4,5-c]pyridin-2-yl]-1,2,4-triazol-3-amine] | ≥ 80 |  |  |  | ≥ 80 | ≥ 80 | ≥ 80 | ≥ 80 | ≥ 80 | ≥ 80 | ≥ 80 | ≥ 80 |  | ≥ 80 |  | ≥ 80
CCn1c(-n2ncnc2N)nc2cncc(-c3ccc(Cl)c(Cl)c3F)c21 [Compound 100, 2-[7-(3,4-dichloro-2-fluorophenyl)-1-ethylimidazo[4,5-c]pyridin-2-yl]-1,2,4-triazol-3-amine] | ≥ 80 |  |  |  | ≥ 80 | ≥ 80 | ≥ 80 | ≥ 80 | ≥ 80 | ≥ 80 | ≥ 80 | ≥ 80 |  | ≥ 80 |  | ≥ 80
CCCn1c(-n2ncnc2N)nc2cncc(-c3ccccc3Cl)c21 [Compound 172, 2-[7-(2-chlorophenyl)-1-propyl-imidazo[4,5-c]pyridin-2-yl]-1,2,4-triazol-3-amine] | ≥ 80 | ≥ 80 |  | ≥ 80 | ≥ 80 | ≥ 80 | ≥ 80 | ≥ 80 | ≥ 80 | ≥ 80 | ≥ 80 | ≥ 80 |  | ≥ 80 |  | 
